Assay results published in patent US11718618B2, “Substituted pyrido[2,1-a]isoquinolines as VMAT2 inhibitors” (priority 2021, dated 2023).
pIC50, pKi: −log10 of the molar value.

Columns and labels:
[1] = tested on: VMAT2; conditions: Scherman et al. 1983; read-out: IC50, inhibition of catecholamine uptake by VMAT2; cited from earlier work
[2] = tested on: male Wistar rats; assay: Conditioned avoidance response (CAR) assay of antipsychotic activity; type: in vivo, rat; conditions: for Avoidance and escape failures: 0.3 mg/kg, oral, Wistar rats; for ED50: Rattus norvegicus, read-out: ED50, conditioned avoidance response
Procedure: Animals: Adult male Wistar rats from Envigo (Indianapolis, Ind.) were used in this study. Rats were received at approximately 150 g, assigned unique identification numbers and group housed 2-3 per cage in ventilated cages. All rats were examined, handled, and weighed prior to initiation of the study to assure adequate health and suitability. During the course of the study, 12/12 light/dark cycles were maintained. The RT was maintained between 20° C. and 23° C. with a relative humidity around 50%. Chow and water were provided ad libitum for the duration of the study. All testing was conducted during the light cycle of the rats.
Compound 4-1 (0.03, 0.1, 0.3, and 1 mg/kg) was formulated in 0.25% methyl cellulose and administered orally at a dose volume of 3 mL/kg 120 minutes prior to test.
Compound 4-15 (0.03, 0.1, 0.3, and 1 mg/kg) was formulated in 0.25% methyl cellulose and administered orally at a dose volume of 3 mL/kg 120 minutes prior to test.
In the CAR paradigm, an animal is trained to respond to a conditioned stimulus (auditory and visual) by negative reinforcement (foot shock). Numerous studies have shown that typical and atypical antipsychotic drugs selectively suppress CAR, thus making it an ideal assay to screen potential antipsychotic compounds (Wadenberg & Hicks, Neuroscience and Biobehavioral Reviews, (1999) 23:851-862).
Rats were placed in the CAR two-way shuttle box and the training period of 20 trials ensued. A trial consisted of a 10-sec presentation of an 80 dB white noise followed by a scrambled 0.6 mA foot shock lasting up to 20 sec. The inter-trial interval ranged from 20-60 sec. The rat learned to avoid shock by moving from one compartment to the other when the cue is presented. […] The following measures were captured from the assay:
Avoidance response: If the rat moved from one compartment to the other during the cued-stimulus (CS) presentation. Decreased avoidance responding is the typical signature of an efficacious dose of an antipsychotic.
Avoidance response data were expressed as the number of avoidance responses as well as percent of avoidance responses based on the three baseline responses prior to drug test. Escape failures were expressed as the total number of failures during the test session.
Body weight and avoidance data were analyzed by analysis of variance (ANOVA) followed by Dunnett's post-hoc comparisons when appropriate. Escape failures were analyzed by Kruskal-Wallis nonparametric analysis followed by Dunn's post hoc comparisons when appropriate. Results are reported as mean SEM. An effect was considered statistically significant if p<0.05.

[3] = molecular target: human VMAT2 (Homo sapiens (Human), UniProt Q05940); assay: VMAT2 radioligand binding, 3H-dihydrotetrabenazine competition on human platelet homogenate; conditions: 10 nM 3H-dihydrotetrabenazine, human platelet homogenate, 25° C., 90 minutes; read-out: VMAT2 Ki
Method in brief: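 Ki from scintillation counting of filter-bound ³H-dihydrotetrabenazine (10 nM) after 90 min, 25 °C incubation with twelve concentrations of compound. Membranes: human platelet homogenate, 30 μg protein per well; buffer DPBS, 1 mM EDTA, pH 7.4.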

[4] = tested on: male Sprague-Dawley rats; assay: Open-field hypolocomotion / locomotor activity (LMA) assay; type: in vivo; conditions: Rattus norvegicus, pre-treatment 60 or 120 minutes, beam breaks in 30 min, read-out: ED50, reduction of locomotor activity
Procedure: The effect of VMAT2 inhibitors on dopamine depletion was measured using the locomotor activity (LMA) assay. Following a pre-treatment time of 60 or 120 minutes, male Sprague-Dawley rats (200-250 g) were placed in a clear cage surrounded by photocell detectors (San Diego Instruments). Rat locomotor activity was detected by breaks in the photocell beams and activity is defined as the number of beam breaks in 30 min. Data was analyzed by one-way analysis of variance (ANOVA; SigmaStat version 3.0.1, SPSS, Chicago, Ill.) followed by the Student Newman Keuls post-hoc test for significance.

[5] = Stability of compounds in human liver microsomes; type: in vitro ADME; conditions: for CLint scaled at 0.5 μM / half-life at 0.5 μM: both sexes, pH 7.4; for CLint scaled at 0.5 μM: liver microsomes, calculated from HLM half-life, read-out: HLM Scaled Intrinsic Clearance; for CLint scaled at 0.5 μM / Predicted Max. Bioavailability (% F) / HLM Predicted Systemic Clearance: human; for half-life at 0.5 μM: 0.5 μM compound, 0.5 mg/mL human liver microsomes, 37° C., maxed at 420 minutes, read-out: HLM Elimination half-life (t1/2, min); for Predicted Max. Bioavailability (% F): predicted from HLM data; for HLM Predicted Systemic Clearance: scaled from HLM half-life (Obach method)
Method in brief: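 Compound at 0.5 μM incubated at 37 °C with pooled mixed-gender human liver microsomes (0.5 mg/mL protein) and an NADPH-generating system in pH 7.4 phosphate buffer, sampled 0–60 min. Parent depletion tracked by LC-MS/MS; t1/2 derived from the slope by non-linear regression, with predicted extraction ratio and maximum bioavailability also calculated.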

[6] = once formed, in patients administered (±)-TBZ; cited from earlier work

Sequence of human VMAT2 (Q05940 whole entry): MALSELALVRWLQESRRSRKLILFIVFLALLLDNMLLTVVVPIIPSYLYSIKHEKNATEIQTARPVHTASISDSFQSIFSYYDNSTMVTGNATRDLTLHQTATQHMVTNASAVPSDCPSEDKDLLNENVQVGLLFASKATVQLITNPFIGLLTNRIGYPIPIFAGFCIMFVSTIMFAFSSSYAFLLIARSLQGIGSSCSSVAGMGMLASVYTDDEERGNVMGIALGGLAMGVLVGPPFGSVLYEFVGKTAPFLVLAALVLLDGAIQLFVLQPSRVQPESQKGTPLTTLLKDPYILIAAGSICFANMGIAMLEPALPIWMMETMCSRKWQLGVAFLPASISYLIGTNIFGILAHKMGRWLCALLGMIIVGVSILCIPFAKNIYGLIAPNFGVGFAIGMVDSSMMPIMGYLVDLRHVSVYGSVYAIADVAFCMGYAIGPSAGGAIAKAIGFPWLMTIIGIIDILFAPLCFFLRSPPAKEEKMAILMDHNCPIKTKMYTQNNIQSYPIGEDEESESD

Row | Compound | pIC50 [1] | Avoidance and escape failures [2] | ED50 [2] [mg/kg] | pKi [3] | ED50 [4] [mg/kg] | CLint scaled at 0.5 μM [5] [mL/min/kg] | half-life at 0.5 μM [5] [min] | Predicted Max. Bioavailability (% F) [5] [% F] | HLM Predicted Systemic Clearance [5] [mL/min/kg] | half-life [6]
2 | COc1cc2c(cc1OCC(F)(F)F)CCN1C[C@@H](CC(C)(C)C)[C@H](O)C[C@H]21 [Compound 4-1, (2R,3R,11bR)-3-(2,2-dimethylpropyl)-10-methoxy-9-(2,2,2-trifluoroethoxy)-1H,2H,3H,4H,6H,7H,11bH-pyrido[2,1-a]isoquinolin-2-ol] | – | reduction in avoidance without significant increase in escape failures | 0.55 | 8.62 | 0.24 | ≤ 2.97 | ≥ 420 | ≥87 | ≤2.59 | –
3 | COc1cc2c(cc1OCCC(F)(F)F)CCN1C[C@@H](CC(C)(C)C)[C@H](O)C[C@H]21 [Compound 4-15, (2R,3R,11bR)-3-(2,2-dimethylpropyl)-10-methoxy-9-(3,3,3-trifluoropropoxy)-1H,2H,3H,4H,6H,7H,11bH-pyrido[2,1-a]isoquinolin-2-ol] | – | reduction in avoidance without significant increase in escape failures | 0.44 | 8.96 | 0.18 | 4.05 | 308 | 83 | 3.37 | –
4 | COc1cc2c(cc1OC1CC1)CCN1C[C@@H](CC(C)(C)C)[C@H](O)C[C@H]21 [Compound 4-27, (2R,3R,11bR)-9-cyclopropoxy-3-(2,2-dimethylpropyl)-10-methoxy-1H,2H,3H,4H,6H,7H,11bH-pyrido[2,1-a]isoquinolin-2-ol] | – | – | – | 9.00 | 0.14 | ≤ 2.97 | ≥ 420 | ≥87 | ≤2.59 | –
5 | COc1cc2c(cc1OCC1(F)CC1)CCN1C[C@@H](CC(C)(C)C)[C@H](O)C[C@H]21 [Compound 4-31, (2R,3R,11bR)-3-(2,2-dimethylpropyl)-9-[(1-fluorocyclopropyl)methoxy]-10-methoxy-1H,2H,3H,4H,6H,7H,11bH-pyrido[2,1-a]isoquinolin-2-ol] | – | – | – | 8.80 | 0.31 | ≤ 2.97 | ≥ 420 | ≥87 | ≤2.59 | –
6 | COc1cc2c(cc1OC[C@H](O)C(F)(F)F)CCN1C[C@@H](CC(C)(C)C)[C@H](O)C[C@H]21 [Compound 4-50, (2R,3R,11bR)-3-(2,2-dimethylpropyl)-10-methoxy-9-[(2S)-3,3,3-trifluoro-2-hydroxypropoxy]-1H,2H,3H,4H,6H,7H,11bH-pyrido[2,1-a]isoquinolin-2-ol] | – | – | – | 8.85 | 0.21 | ≤ 2.97 | ≥ 420 | ≥87 | ≤2.59 | –
7 | COc1cc2c(cc1OC[C@@H](C)O)CCN1C[C@@H](CC(C)(C)C)[C@H](O)C[C@H]21 [Compound 4-55, (2R,3R,11bR)-3-(2,2-dimethylpropyl)-9-[(2R)-2-hydroxypropoxy]-10-methoxy-1H,2H,3H,4H,6H,7H,11bH-pyrido[2,1-a]isoquinolin-2-ol] | – | – | – | 8.32 | 0.29 | ≤ 2.97 | ≥ 420 | ≥87 | ≤2.59 | –
8 | COc1cc2c(cc1OCC1(F)CC1)CCN1C[C@@H](CC(C)(C)C)[C@@H](O)C[C@H]21 [Compound 4-118, (2S,3R,11bR)-3-(2,2-dimethylpropyl)-9-[(1-fluorocyclopropyl)methoxy]-10-methoxy-1H,2H,3H,4H,6H,7H,11bH-pyrido[2,1-a]isoquinolin-2-ol] | – | – | – | 7.89 | – | 6.6 | 189 | 75 | 4.96 | –
9 | COc1cc2c(cc1OCC1CCC1)CCN1C[C@@H](CC(C)(C)C)[C@H](O)C[C@H]21 [Compound 4-119, (2R,3R,11bR)-9-(cyclobutylmethoxy)-3-(2,2-dimethylpropyl)-10-methoxy-1H,2H,3H,4H,6H,7H,11bH-pyrido[2,1-a]isoquinolin-2-ol] | – | – | – | 9.54 | – | 134 | 9 | 13.00 | 17.4 | –
10 | COc1cc2c(cc1OCCCC(F)(F)F)CCN1C[C@@H](CC(C)(C)C)[C@H](O)C[C@H]21 [Compound 4-120, (2R,3R,11bR)-3-(2,2-dimethylpropyl)-10-methoxy-9-(4,4,4-trifluorobutoxy)-1H,2H,3H,4H,6H,7H,11bH-pyrido[2,1-a]isoquinolin-2-ol] | – | – | – | 8.82 | – | ≤ 2.97 | ≥ 420 | ≥87 | ≤2.59 | –
11 | COc1cc2c(cc1OCC1CC1(F)F)CCN1C[C@@H](CC(C)(C)C)[C@H](O)C[C@H]21 (stereo partly drawn) [Compound 4-121, (2R,3R,11bR)-9-[(2,2-difluorocyclopropyl)methoxy]-3-(2,2-dimethylpropyl)-10-methoxy-1H,2H,3H,4H,6H,7H,11bH-pyrido[2,1-a]isoquinolin-2-ol] | – | – | – | 9.09 | – | 4.46 | 280 | 82 | 3.64 | –
12 | COc1cc2c(cc1OC)[C@H]1C[C@@H](O)[C@H](CC(C)(C)C)CN1CC2 [Compound 5-1, (2R,3R,11bR)-3-(2,2-dimethylpropyl)-9,10-dimethoxy-1H,2H,3H,4H,6H,7H,11bH-pyrido[2,1-a]isoquinolin-2-ol] | – | – | – | 8.18 | – | 15.6 | 80 | 56 | 8.77 | –
13 | COc1cc2c(cc1OC)[C@H]1C[C@H](O)[C@H](CC(C)(C)C)CN1CC2 [Compound 5-2, (2S,3R,11bR)-3-(2,2-dimethylpropyl)-9,10-dimethoxy-1H,2H,3H,4H,6H,7H,11bH-pyrido[2,1-a]isoquinolin-2-ol] | – | – | – | 7.30 | – | 32.6 | 38 | 38 | 12.39 | –
14 | COc1cc2c(cc1OC)C1CC(O)C(CC(C)C)CN1CC2 (stereo not drawn) [[+]-beta-DHTBZ, 3-isobutyl-9,10-dimethoxy-1,3,4,6,7,11b-hexahydro-2H-pyrido[2,1-a]isoquinolin-2-ol] | – | – | – | – | – | – | – | – | – | approximately 5 hours
